Our source for the persistence length values is patent US20040024317A1, “Method for assessing capillary permeability” (priority 2002, published 2004).

The nature of this data set: Persistence length by light scattering. The class given is physicochemical. The settings on record: little or no substitution; folded polypeptide. The source says: An elongated, worm-like conformation of a macromolecule results in greater uptake than other conformations, such as folded, or globular conformations. Conformation may be measured by a persistence length of the molecule. This may be determined by light scattering.
The conformation attained by the present polymeric contrast agents is that of a worm-like shape being essentially a stretched out, extended chain with little folding. A measure of the “straightness” of a molecule is a persistence length. Persistence length is related to a radius of gyration, measured by light scattering experiments. A folded polypeptide such as poly-L-lysine (PLL) with little or no substitution, has a low persistence length of about 10 Angstroms (Å), and is not suitable for diagnosing sepsis. Therefore, the present polymeric contrast agents preferably have a persistence lengths of 100-600 Å.

In the case of poly-L-lysine [poly-L-lysine (PLL)], the persistence length result is “about 10 Angstroms (Å)”.
